In ChEMBL document CHEMBL3399926, “Synthesis and structure-activity relationships of boswellic acid derivatives as potent VEGFR-2 inhibitors” (Bioorg Med Chem, 2015):

What follows are compounds tested on HUVEC (assay: Induction of apoptosis in HUVEC cells). Conditions: Homo sapiens.
Type: functional, cell-based

For `CC(=O)O[C@@H]1CC[C@@]2(C)[C@@H](CC[C@]3(C)[C@@H]2C(=O)C=C2[C@@H]4[C@@H](C)[C@H](C)CC[C@]4(C)CC[C@]23C)[C@@]1(C)C(=O)N1CCNCC1`, the Activity was “Dose-dependent effect”.
With `C[C@H]1[C@H](C)CC[C@]2(C)CC[C@]3(C)C(=CC(=O)[C@@H]4[C@@]5(C)Cc6cn[nH]c6[C@](C)(C(=O)O)[C@@H]5CC[C@]43C)[C@H]12` the Activity was “Dose-dependent effect”.

Each compound was assayed on HUVEC (assay: Antiproliferation activity against HUVEC cells after 48 hrs by CCK-8 assay). Conditions: Homo sapiens.
Type: functional, cell-based

Going from `CC(=O)O[C@@H]1CC[C@@]2(C)[C@@H](CC[C@]3(C)[C@@H]2C(=O)C=C2[C@@H]4[C@@H](C)[C@H](C)CC[C@]4(C)CC[C@]23C)[C@@]1(C)C(=O)NC1CCNCC1` to `CC(=O)O[C@@H]1CC[C@@]2(C)[C@@H](CC[C@]3(C)[C@@H]2C(=O)C=C2[C@@H]4[C@@H](C)[C@H](C)CC[C@]4(C)CC[C@]23C)[C@@]1(C)C(=O)N1CCNCC1`, the IC50 falls from 8.23 µM to 2.36 µM (3.5-fold).

Compared with `CC(=O)n1ncc2c1[C@](C)(C(=O)O)[C@@H]1CC[C@]3(C)[C@H](C(=O)C=C4[C@@H]5[C@@H](C)[C@H](C)CC[C@]5(C)CC[C@]43C)[C@@]1(C)C2`, `CCNC(=O)n1ncc2c1[C@](C)(C(=O)O)[C@@H]1CC[C@]3(C)[C@H](C(=O)C=C4[C@@H]5[C@@H](C)[C@H](C)CC[C@]5(C)CC[C@]43C)[C@@]1(C)C2` is 1.6-fold lower in IC50: 9.27 µM for the first, 5.8 µM for the second. The second is the more potent here.

First: CC(=O)O[C@@H]1CC[C@@]2(C)[C@@H](CC[C@]3(C)[C@@H]2C(=O)C=C2[C@@H]4[C@@H](C)[C@H](C)CC[C@]4(C)CC[C@]23C)[C@@]1(C)C(=O)N1CCCCC1
Second: CC(=O)O[C@@H]1CC[C@@]2(C)[C@@H](CC[C@]3(C)[C@@H]2C(=O)C=C2[C@@H]4[C@@H](C)[C@H](C)CC[C@]4(C)CC[C@]23C)[C@@]1(C)C(=O)N1CCCNCC1
The IC50 of the first is 13-fold higher: 35.8 µM for the first, 2.79 µM for the second. The second is the more potent here.

First: C[C@H]1[C@H](C)CC[C@]2(C)CC[C@]3(C)C(=CC(=O)[C@@H]4[C@@]5(C)Cc6c([nH]c7ccccc67)[C@](C)(C(=O)O)[C@@H]5CC[C@]43C)[C@H]12
Second: C[C@H]1[C@H](C)CC[C@]2(C)CC[C@]3(C)C(=CC(=O)[C@@H]4[C@@]5(C)Cc6cn[nH]c6[C@](C)(C(=O)O)[C@@H]5CC[C@]43C)[C@H]12
The IC50 of the first is 3.9-fold higher: 8.22 µM for the first, 2.13 µM for the second. The second is the more potent here.

Going from `CC(=O)O[C@@H]1CC[C@]2(C)[C@H]3C(=O)C=C4[C@@H]5[C@@H](C)[C@H](C)CC[C@]5(C)CC[C@@]4(C)[C@]3(C)CC[C@H]2[C@@]1(C)C#N` to `CC(=O)O[C@@H]1CC[C@@]2(C)[C@@H](CC[C@]3(C)[C@@H]2C(=O)C=C2[C@@H]4[C@@H](C)[C@H](C)CC[C@]4(C)CC[C@]23C)[C@@]1(C)C(=O)O` [AKBA], the IC50 falls from > 100 µM to 7.45 µM. The second is the more potent here.

Going from `CCOC(=O)C(=O)O[C@@H]1CC[C@@]2(C)[C@@H](CC[C@]3(C)[C@@H]2C(=O)C=C2[C@@H]4[C@@H](C)[C@H](C)CC[C@]4(C)CC[C@]23C)[C@@]1(C)C(=O)O` to `CC(=O)O[C@H]1CC[C@@]2(C)[C@@H](CC[C@]3(C)[C@@H]2C(=O)C=C2[C@@H]4[C@@H](C)[C@H](C)CC[C@]4(C)CC[C@]23C)[C@@]1(C)C(=O)O`, the IC50 falls from > 100 µM to 35.8 µM.

Going from `CC(=O)O[C@@H]1CC[C@@]2(C)[C@@H](CC[C@]3(C)[C@@H]2CC=C2[C@@H]4[C@@H](C)[C@H](C)CC[C@]4(C)CC[C@]23C)[C@@]1(C)C(=O)O` to `CC(=O)O[C@@H]1CC[C@@]2(C)[C@@H](CC[C@]3(C)[C@@H]2C(=O)C=C2[C@@H]4[C@@H](C)[C@H](C)CC[C@]4(C)CC[C@]23C)[C@@]1(C)C(N)=O`, the IC50 falls from > 100 µM to 5.02 µM. The second is the more potent here.

`CC(=O)O[C@@H]1CC[C@@]2(C)[C@@H](CC[C@]3(C)[C@@H]2C(=O)C=C2[C@@H]4[C@@H](C)[C@H](C)CC[C@]4(C)CC[C@]23C)[C@@]1(C)C(=O)Nc1ccncc1` and `CC(=O)O[C@@H]1CC[C@@]2(C)[C@@H](CC[C@]3(C)[C@@H]2C(=O)C=C2[C@@H]4[C@@H](C)[C@H](C)CC[C@]4(C)CC[C@]23C)[C@@]1(C)C(=O)NN` cannot be ordered by IC50: > 100 µM for the first, > 100 µM for the second.

First: CC(=O)N[C@H]1CC[C@@]2(C)[C@@H](CC[C@]3(C)[C@@H]2C(=O)C=C2[C@@H]4[C@@H](C)[C@H](C)CC[C@]4(C)CC[C@]23C)[C@@]1(C)C(=O)O
Second: C[C@H]1[C@H](C)CC[C@]2(C)CC[C@]3(C)C(=CC(=O)[C@@H]4[C@@]5(C)CC[C@H](O)[C@](C)(C(=O)O)[C@@H]5CC[C@]43C)[C@H]12
The IC50 of the first is 1.7-fold higher: 47.5 µM for the first, 27.2 µM for the second.

`C[C@H]1[C@H](C)CC[C@]2(C)CC[C@]3(C)C(=CC(=O)[C@@H]4[C@@]5(C)Cc6cnn(C(=O)Nc7ccccc7)c6[C@](C)(C(=O)O)[C@@H]5CC[C@]43C)[C@H]12` and `C[C@H]1[C@H](C)CC[C@]2(C)CC[C@]3(C)C(=CC(=O)[C@@H]4[C@@]5(C)Cc6cnn(C(=O)c7ccccc7)c6[C@](C)(C(=O)O)[C@@H]5CC[C@]43C)[C@H]12` are within 1.5-fold of each other in IC50: 9.11 µM for the first, 6.31 µM for the second.

First: CCNC(=O)[C@]1(C)[C@@H]2CC[C@]3(C)[C@H](C(=O)C=C4[C@@H]5[C@@H](C)[C@H](C)CC[C@]5(C)CC[C@]43C)[C@@]2(C)CC[C@H]1OC(C)=O
Second: CC(=O)O[C@@H]1CC[C@@]2(C)[C@@H](CC[C@]3(C)[C@@H]2C(=O)C=C2[C@@H]4[C@@H](C)[C@H](C)CC[C@]4(C)CC[C@]23C)[C@@]1(C)C(=O)NCCN
The IC50 of the first is higher: > 100 µM for the first, 3.76 µM for the second. The second is the more potent here.

`COC(=O)[C@]1(C)[C@@H]2CC[C@]3(C)[C@H](C(=O)C=C4[C@@H]5[C@@H](C)[C@H](C)CC[C@]5(C)CC[C@]43C)[C@@]2(C)CC[C@H]1OC(C)=O` and `CC(=O)O[C@@H]1CC[C@@]2(C)[C@@H](CC[C@]3(C)[C@@H]2C(=O)C=C2[C@@H]4[C@@H](C)[C@H](C)CC[C@]4(C)CC[C@]23C)[C@@]1(C)C(=O)N(C)CCN(C)C` are within 1.5-fold of each other in IC50: 4.6 µM for the first, 5.05 µM for the second.

`C[C@H]1[C@H](C)CC[C@]2(C)CC[C@]3(C)C(=CC(=O)[C@@H]4[C@@]5(C)Cc6cnoc6[C@](C)(C(=O)O)[C@@H]5CC[C@]43C)[C@H]12` and `C[C@H]1[C@H](C)CC[C@]2(C)CC[C@]3(C)C(=CC(=O)[C@@H]4[C@@]5(C)CC/C(=N\O)[C@](C)(C(=O)O)[C@@H]5CC[C@]43C)[C@H]12` are within 1.5-fold of each other in IC50: 9.92 µM for the first, 10.8 µM for the second.

First: CC(=O)O[C@@H]1CC[C@@]2(C)[C@@H](CC[C@]3(C)[C@@H]2C(=O)C=C2[C@@H]4[C@@H](C)[C@H](C)CC[C@]4(C)CC[C@]23C)[C@@]1(C)C(=O)N1CCOCC1
Second: CC(=O)O[C@@H]1CC[C@@]2(C)[C@@H](CC[C@]3(C)[C@@H]2C(=O)C=C2[C@@H]4[C@@H](C)[C@H](C)CC[C@]4(C)CC[C@]23C)[C@@]1(C)C(=O)N1CCN(C)CC1
The IC50 of the first is higher: > 100 µM for the first, 70.3 µM for the second.

`C[C@H]1[C@H](C)CC[C@]2(C)CC[C@]3(C)C(=CC(=O)[C@@H]4[C@@]5(C)CC[C@H](N)[C@](C)(C(=O)O)[C@@H]5CC[C@]43C)[C@H]12` and `C[C@H]1[C@H](C)CC[C@]2(C)CC[C@]3(C)C(=CC(=O)[C@@H]4[C@@]5(C)CC[C@@H](OC(=O)C(F)(F)F)[C@](C)(C(=O)O)[C@@H]5CC[C@]43C)[C@H]12` are within 1.5-fold of each other in IC50: 5.32 µM for the first, 5.13 µM for the second.

First: CO/N=C1\CC[C@@]2(C)[C@@H](CC[C@]3(C)[C@@H]2C(=O)C=C2[C@@H]4[C@@H](C)[C@H](C)CC[C@]4(C)CC[C@]23C)[C@@]1(C)C(=O)O
Second: CC(C)COC(=O)n1ncc2c1[C@](C)(C(=O)O)[C@@H]1CC[C@]3(C)[C@H](C(=O)C=C4[C@@H]5[C@@H](C)[C@H](C)CC[C@]5(C)CC[C@]43C)[C@@]1(C)C2
The IC50 of the first is 4.2-fold higher: 13.1 µM for the first, 3.12 µM for the second.
